This passage reports IC50 results from patent US20230102554A1 (GB002, INC., priority 2019, published 2023).

Experiment [1] addresses T1, Human PDGFRα, cytoplasmic domain (GST-PDGFRα) (Homo sapiens, UniProt P16234).
T1 construct: made in house
In words: Human PDGFRα biochemical inhibition assay (off-chip Mobility Shift Assay).

In experiment [2] the target is T2, Human PDGFRβ, cytoplasmic domain (GST-PDGFRβ) (Homo sapiens, UniProt P09619).
T2 construct: made in house
In words: Human PDGFRβ biochemical inhibition assay (off-chip Mobility Shift Assay). Put shortly:
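GST-tagged cytoplasmic domain (aa 557-1106) from baculovirus was incubated 1 h at room temperature with compound, CSKtide, ATP at Km and Mg²⁺ in HEPES buffer, pH 7.5. Phosphorylated and unphosphorylated peptide were separated by off-chip mobility shift, and the product ratio P/(P+S) gave percent inhibition.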

Bounds are passed on as bounds.

T2 sequence (P09619 with tags, fused parts or gaps): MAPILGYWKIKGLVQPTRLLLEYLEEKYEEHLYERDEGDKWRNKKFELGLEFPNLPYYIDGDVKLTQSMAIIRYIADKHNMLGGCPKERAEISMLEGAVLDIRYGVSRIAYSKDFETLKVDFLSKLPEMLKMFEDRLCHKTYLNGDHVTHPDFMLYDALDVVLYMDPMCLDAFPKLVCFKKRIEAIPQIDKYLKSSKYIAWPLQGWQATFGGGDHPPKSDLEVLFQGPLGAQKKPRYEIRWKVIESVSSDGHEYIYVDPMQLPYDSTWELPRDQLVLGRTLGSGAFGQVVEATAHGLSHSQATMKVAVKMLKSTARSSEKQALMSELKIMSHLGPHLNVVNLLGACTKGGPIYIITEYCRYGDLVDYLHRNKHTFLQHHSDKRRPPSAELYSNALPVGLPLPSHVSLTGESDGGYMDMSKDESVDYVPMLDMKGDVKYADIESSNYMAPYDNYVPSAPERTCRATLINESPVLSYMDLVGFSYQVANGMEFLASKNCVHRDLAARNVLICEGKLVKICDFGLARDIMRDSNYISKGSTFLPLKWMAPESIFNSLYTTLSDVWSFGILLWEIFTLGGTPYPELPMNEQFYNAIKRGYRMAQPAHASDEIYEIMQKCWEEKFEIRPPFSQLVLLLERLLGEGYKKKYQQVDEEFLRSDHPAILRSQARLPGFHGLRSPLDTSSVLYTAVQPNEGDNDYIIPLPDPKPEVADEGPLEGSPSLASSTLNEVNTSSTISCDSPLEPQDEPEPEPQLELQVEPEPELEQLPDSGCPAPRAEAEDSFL
T1 sequence (P16234 550-1089 T674I): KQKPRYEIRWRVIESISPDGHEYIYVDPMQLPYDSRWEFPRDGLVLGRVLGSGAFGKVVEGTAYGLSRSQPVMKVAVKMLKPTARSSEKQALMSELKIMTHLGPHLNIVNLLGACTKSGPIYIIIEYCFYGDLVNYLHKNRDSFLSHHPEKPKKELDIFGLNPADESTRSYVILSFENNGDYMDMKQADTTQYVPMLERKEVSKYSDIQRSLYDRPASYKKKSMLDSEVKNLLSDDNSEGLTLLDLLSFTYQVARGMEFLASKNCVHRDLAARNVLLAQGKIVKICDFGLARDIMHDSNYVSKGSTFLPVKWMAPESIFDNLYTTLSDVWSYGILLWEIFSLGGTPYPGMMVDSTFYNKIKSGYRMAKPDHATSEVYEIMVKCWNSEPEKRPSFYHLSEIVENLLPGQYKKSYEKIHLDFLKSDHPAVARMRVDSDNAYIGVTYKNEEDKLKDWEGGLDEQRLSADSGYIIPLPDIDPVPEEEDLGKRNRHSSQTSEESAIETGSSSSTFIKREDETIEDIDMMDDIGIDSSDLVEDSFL

`COc1ncc(C(=O)Nc2cccc([C@H](C)Nc3cnc4[nH]cc(-c5cnn(C)c5)c4n3)c2)cc1C` [Compound 579, (S)-6-methoxy-5-methyl-N-(3-(1-((7-(1-methyl-1H-pyrazol-4-yl)-5H-pyrrolo[2,3-b]pyrazin-2-yl)amino)ethyl)phenyl) nicotinamide]: the IC50 in experiment [1] and in experiment [2] was less than 300 nM each time.

In the case of `CCn1cc2ncc(N[C@@H](C)c3cc(NC(=O)c4cnc(NC5CC5)c(C)c4)ccc3C)nc2n1` [Compound 515, (S)-6-(cyclopropylamino)-N-(3-(1-((2-ethyl-2H-pyrazolo[3,4-b]pyrazin-6-yl)amino)ethyl)-4-methylphenyl)-5-methylnicotinamide], the IC50 in experiment [1] and in experiment [2] was less than 300 nM each time.

As to `C[C@H](Nc1cnc2cnn(C)c2n1)c1cccc(NC(=O)c2cnc3c(c2)CCCO3)c1` [Compound 70, (S)-N-(3-(1-((1-methyl-1H-pyrazolo[3,4-b]pyrazin-6-yl)amino)ethyl)phenyl)-3,4-dihydro-2H-pyrano[2,3-b] pyridine-6-carboxamide], the IC50 in experiment [1] and in experiment [2] was less than 300 nM throughout.

Regarding `Cc1cc2ncc(N[C@@H](C)c3cc(NC(=O)c4cnn(C5CCC5)c4)ccc3F)nc2s1` [Compound 613, (S)-1-cyclobutyl-N-(4-fluoro-3-(1-((6-methylthieno[2,3-b]pyrazin-3-yl)amino)ethyl)phenyl)-1H-pyrazole-4-carboxamide], the IC50 in experiment [1] and in experiment [2] was less than 300 nM in each case.

`CCOCc1cncc(C(=O)Nc2cccc([C@H](C)Nc3cnc4cnn(C)c4n3)c2)c1` [Compound 230, (S)-5-(ethoxymethyl)-N-(3-(1-((1-methyl-1H-pyrazolo[3,4-b]pyrazin-6-yl)amino)ethyl)phenyl)nicotinamide]: the IC50 in experiment [1] and in experiment [2] was less than 300 nM each time.

In the case of `CCn1cc2ncc(N[C@@H](C)c3cccc(NC(=O)c4cc(F)c(CN5CCN(C)CC5)c(Cl)c4)c3)nc2n1` [Compound 489, (S)-3-chloro-N-(3-(1-((2-ethyl-2H-pyrazolo[3,4-b]pyrazin-6-yl)amino)ethyl)phenyl)-5-fluoro-4-((4-methylpiperazin-1-yl)methyl)benzamide], the IC50 in experiment [1] and in experiment [2] was less than 300 nM throughout.

In the case of `C[C@H](Nc1cnc2cnn(C)c2n1)c1cccc(NC(=O)c2cnn(C)c2)c1` [Compound 146, (S)-1-methyl-N-(3-(1-((1-methyl-1H-pyrazolo[3,4-b]pyrazin-6-yl)amino)ethyl)phenyl)-1H-pyrazole-4-carboxamide], the IC50 in experiment [1] is 300 to 1000 nM; in experiment [2], no less than 1000 nM.

In the case of `CCn1cc2ncc(N[C@@H](C)c3cc(NC(=O)c4ccc(CN5CCOCC5)c(C(F)(F)F)c4)ccc3F)nc2n1` [Compound 428, (S)-N-(3-(1-((2-ethyl-2H-pyrazolo[3,4-b]pyrazin-6-yl)amino)ethyl)-4-fluorophenyl)-4-(morpholinomethyl)-3-(trifluoromethyl)benzamide], the IC50 in experiment [1] and in experiment [2] was less than 300 nM in each case.

With `C[C@H](Nc1cnc2cnn(C)c2n1)c1cccc(NC(=O)N2CCCC(C(F)(F)F)C2)c1` (stereo partly drawn) [Compound 54, N-(3-((S)-1-((1-methyl-1H-pyrazolo[3,4-b]pyrazin-6-yl)amino)ethyl)phenyl)-3-(trifluoromethyl)piperidine-1-carboxamide], the IC50 in experiment [1] and in experiment [2] was less than 300 nM each time.

As to `CCn1cc2ncc(N[C@@H](C)c3cccc(NC(=O)c4cnc5[nH]nc(C)c5c4)c3)nc2n1` [Compound 61, (S)-N-(3-(1-((2-ethyl-2H-pyrazolo[3,4-b]pyrazin-6-yl)amino)ethyl)phenyl)-3-methyl-1H-pyrazolo[3,4-b]pyridine-5-carboxamide], the results for the IC50 in experiment [1] and in experiment [2] were 300 to 1000 nM and no less than 1000 nM, respectively.

Turning to `CNc1ncc(C(=O)Nc2cccc([C@H](C)Nc3cnc4cnn(C)c4n3)c2)cc1C` [Compound 130, (S)-5-methyl-N-(3-(1-((1-methyl-1H-pyrazolo[3,4-b]pyrazin-6-yl)amino)ethyl)phenyl)-6-(methylamino) nicotinamide], the IC50 in experiment [1] and in experiment [2] was less than 300 nM in each case.

`C[C@H](Nc1cnc2cnn(C)c2n1)c1cccc(NC(=O)c2ccc3c(c2)CCCO3)c1` [Compound 71, (S)-N-(3-(1-((1-methyl-1H-pyrazolo[3,4-b]pyrazin-6-yl)amino)ethyl)phenyl)chromane-6-carboxamide]: the IC50 in experiment [1] and in experiment [2] was less than 300 nM each time.

`CCn1cc2ncc(N[C@@H](C)c3cccc(NC(=O)c4ccc(CN5CCN(C)CC5)c(C(F)(F)F)c4)c3)nc2n1` [Compound 423, (S)-N-(3-(1-((2-ethyl-2H-pyrazolo[3,4-b]pyrazin-6-yl)amino)ethyl)phenyl)-4-((4-methylpiperazin-1-yl)methyl)-3-(trifluoromethyl)benzamide]: the IC50 in experiment [1] and in experiment [2] was less than 300 nM throughout.

As for `Cc1cc(C(=O)Nc2cccc([C@H](C)Nc3cnc4cnn(C)c4n3)c2)ccc1C(=O)OCCN` [Compound 266, 2-aminoethyl (S)-2-methyl-4-((3-(1-((1-methyl-1H-pyrazolo[3,4-b]pyrazin-6-yl)amino)ethyl)phenyl)carbamoyl) benzoate], the IC50 in experiment [1] and in experiment [2] was less than 300 nM in each case.

With `C[C@H](Nc1cnc2cnn(C)c2n1)c1cccc(NC(=O)c2ccc(C3CC3)nc2)c1` [Compound 116, (S)-6-cyclopropyl-N-(3-(1-((1-methyl-1H-pyrazolo[3,4-b]pyrazin-6-yl)amino)ethyl)phenyl)nicotinamide], the IC50 in experiment [1] and in experiment [2] was less than 300 nM throughout.

As to `CCn1cc2ncc(N[C@@H](C)c3cccc(NC(=O)c4cnn(CC5CC5)c4)c3)nc2n1` [Compound 300, (S)-1-(cyclopropylmethyl)-N-(3-(1-((2-ethyl-2H-pyrazolo[3,4-b]pyrazin-6-yl)amino)ethyl)phenyl)-1H-pyrazole-4-carboxamide], the IC50 in experiment [1] and in experiment [2] was less than 300 nM each time.

`C[C@H](Nc1cnc2cnn(C)c2n1)c1cccc(NC(=O)c2ccc3c(c2)SCCN3)c1` [Compound 79, (S)-N-(3-(1-((1-methyl-1H-pyrazolo[3,4-d]pyrazin-6-yl)amino)ethyl)phenyl)-3,4-dihydro-2H-benzo[b] [1,4]thiazine-7-carboxamide]: the IC50 in experiment [1] and in experiment [2] was less than 300 nM throughout.

As to `C[C@H](Nc1cnc2cnn(C)c2n1)c1cccc(NC(=O)c2cnc3cnn(C)c3c2)c1` [Compound 48, (S)-1-methyl-N-(3-(1-((1-methyl-1H-pyrazolo[3,4-b]pyrazin-6-yl)amino)ethyl)phenyl)-1H-pyrazolo[4,3-b] pyridine-6-carboxamide], the IC50 in experiment [1] and in experiment [2] was less than 300 nM throughout.

As to `CCn1cc2ncc(N[C@@H](C)c3cccc(NC(=O)c4cncc(OC)c4)c3)nc2n1` [Compound 279, (S)-N-(3-(1-((2-ethyl-2H-pyrazolo[3,4-b]pyrazin-6-yl)amino)ethyl)phenyl)-5-methoxynicotinamide], the IC50 in experiment [1] is less than 300 nM; in experiment [2] it was 300 to 1000 nM.

Turning to `Cc1cncc(C(=O)Nc2cccc([C@H](C)Nc3cnc4ncccc4n3)c2)c1` [Compound 26, (S)-5-methyl-N-(3-(1-(pyrido[2,3-b]pyrazin-2-ylamino)ethyl)phenyl) nicotinamide], the IC50 is 300 to 1000 nM in experiment [1] and no less than 1000 nM in experiment [2].

Regarding `COc1cc(C(=O)Nc2cccc([C@H](C)Nc3cnc4cnn(C)c4n3)c2)cnc1OC` [Compound 205, (S)-5,6-dimethoxy-N-(3-(1-((1-methyl-1H-pyrazolo[3,4-b]pyrazin-6-yl)amino)ethyl)phenyl)nicotinamide], the IC50 in experiment [1] and in experiment [2] was less than 300 nM in each case.

With `CCn1cc2ncc(N[C@@H](C)c3cccc(NC(=O)c4ccc(C)o4)c3)nc2n1` [Compound 369, (S)-N-(3-(1-((2-ethyl-2H-pyrazolo[3,4-b]pyrazin-6-yl)amino)ethyl)phenyl)-5-methylfuran-2-carboxamide], the IC50 in experiment [1] and in experiment [2] was no less than 1000 nM in each case.

For the compound `Cc1c[nH]c2ncc(N[C@@H](C)c3cccc(NC(=O)c4cncc(C(F)F)c4)c3)nc12` [Compound 556, (S)-5-(difluoromethyl)-N-(3-(1-((7-methyl-5H-pyrrolo[2,3-6]pyrazin-2-yl)amino)ethyl)phenyl)nicotinamide], the IC50 in experiment [1] and in experiment [2] was less than 300 nM throughout.

For `CCn1cc2ncc(N[C@@H](C)c3cccc(NC(=O)Cc4ccc(F)c(C)c4)c3)nc2n1` [Compound 632, (S)-N-(3-(1-((2-ethyl-2H-pyrazolo[3,4-b]pyrazin-6-yl)amino)ethyl)phenyl)-2-(4-fluoro-3-methylphenyl) acetamide], the IC50 in experiment [1] and in experiment [2] was less than 300 nM each time.

`CCn1cc2ncc(N[C@@H](C)c3cccc(NC(=O)c4cnc(N(C)C)c(C)c4)c3)nc2n1` [Compound 348, (S)-6-(dimethylamino)-N-(3-(1-((2-ethyl-2H-pyrazolo[3,4-b]pyrazin-6-yl)amino)ethyl)phenyl)-5-methylnicotinamide]: the IC50 in experiment [1] and in experiment [2] was less than 300 nM throughout.

As to `C[C@H](Nc1cnc2cnn(C)c2n1)c1cccc(NC(=O)c2cncc(C(C)(C)O)c2)c1` [Compound 107, (S)-5-(2-hydroxypropan-2-yl)-N-(3-(1-((1-methyl-1H-pyrazolo[3,4-b]pyrazin-6-yl)amino)ethyl)phenyl) nicotinamide], the IC50 in experiment [1] and in experiment [2] was less than 300 nM throughout.

In the case of `CCn1cc2ncc(N[C@@H](C)c3cc(NC(=O)c4cnc(N5CCN(C)CC5)c(C(F)(F)F)c4)ccc3F)nc2n1` [Compound 445, (S)-N-(3-(1-((2-ethyl-2H-pyrazolo[3,4-b]pyrazin-6-yl)amino)ethyl)-4-fluorophenyl)-6-(4-methylpiperazin-1-yl)-5-(trifluoromethyl)nicotinamide], the IC50 in experiment [1] and in experiment [2] was less than 300 nM in each case.
